From patent publication US8148431B2, “Osteogenesis promoter containing β-cryptoxanthin as the active ingredient” (Kemin Health, L.C., priority 2002, dated 2012)
Marks after values point to notes of the source that are not given here.

How the values were obtained:
[1] = test system: diaphysis tissue of the femur (cortical bone); experiment: Bone alkaline phosphatase activity in cultured femoral diaphysis tissue pieces; format: cell-based, Wistar male rats; conditions: for Bone alkaline phosphatase activity: diaphysis tissue, mean ± SE
Method: (§1) The femurs were extracted from rats (Wistar male rats; 4 to 5 weeks old) (purchased from Japan SLC Co., Ltd. and fed with solid Oriental yeast (MF)) under anesthesia with ether under a germfree condition. The femurs were each washed with 0.25 M sucrose solution, and then divided into the diaphysis (cortical bone) and metaphysis (cancellous bone). The bone tissue pieces were cultured in a culture medium (Dulbecco's modified culture medium containing 5% of glucose; serum-free medium) containing. β-cryptoxanthin, etc. at […] in an incubator filled with 5% CO2-95% air for 48 hours. β-cryptoxanthin used was “β-cryptoxanthin” of Extrasynthase Co., cycloheximide used was “Cycloheximide” of Sigma Co. Ltd., β-carotene was “β-carotene” of Sigma ? , xanthine was “Xanthine” of Sigma Co, Ltd., parathormone was “Parathormone” of Sigma Co. Ltd. and prostaglandin E2 was “Prostaglandin E2” of Sigma Co. Ltd. In the control, only the culture medium was used without β-cryptoxanthin or the like.
(§2) The expression level of alkaline phosphatase, which is the most important enzyme for the acceleration of the calcification of bones, was examined. The tissue pieces cultured in the incubator were washed in 0.25 M sucrose solution, then pulverized in 3 ml of 65 mM barbital buffer (pH 7-4) and treated with ultrasonic waves. The resultant liquid was centrifuged. The supernatant, as the enzyme solution, was determined by a method of Walter ad Schutt in Method of Enzymatic Analysis, Vol. 1-2, p. 856, Academic Press, New York, 1965). Namely, this method was carried out as follows: p-nitrophenylphosphoric acid was used as the substrate. 0.05 ml of the enzyme solution was added to 2 ml of diethanolamine buffer (pH 9.8). After the incubation at 37° C. for 30 minutes, 10 ml of 0.05 N NaOH was added to the mixture. The absorbance (405 nm) was determined with a spectrophotometer to determine bone alkaline phosphatase activity of a bone remedy or a compound known to be effective for the bones.
(§3) The bone component-increasing effect of β-cryptoxanthin was examined. The diaphysis and metaphysis tissue of the femur was cultured in the above-described culture medium containing β-cryptoxanthin (10^−5 to 10^−5 M) for 48 hours. Calcium level in the bone tissue, alkaline phosphatase activity (enzyme for accelerating the bone calcification) and the amount of deoxyribonucleic acid (DNA; index of number of cells in the bone tissue) were determined by the same methods as in Example 1. In each test group, the determination vas conducted 6 to 8 times and the results were represented by the average value and the standard error. The significant difference was determined by Student's t-test. The result was compared with that of the control. When P value was not higher than 0.01 (**) or not higher than 0.05 (*), the results were statistically significant.

[2] = test system: rats, femoral metaphysis tissue; experiment: Oral administration to rats: bone alkaline phosphatase activity in metaphysis tissue; format: in vivo, Wistar male rats; conditions: for Bone alkaline phosphatase activity: metaphysis tissue
Method: as §2
(§4) A solution of β-cryptoxanthin in corn oil having one of three kinds of concentration (10, 25 and 50 μg/ml corn oil) was orally administered to rats (Wistar male rats; 4 to 5 weeks old) in an amount/100 g body weight with a probe once a day for 7 days. The rats were sacrificed 24 hours after the final administration. The femurs were excised. The muscles, etc. were taken out and each femur was divided into diaphysis and metaphysis to determine the bone components.
(§5) Tests were conducted to examine whether the bone components are increased by the oral administration of β-cryptoxanthin to rats or not. β-cryptoxanthin was administered for 7 days (10, 25 or 50 μg/100 g body weight/day) and then calcium level in the bone tissue, determination of alkaline phosphatase activity (enzyme for the acceleration of the calcification of bones) and the amount of deoxyribonucleic acid (DNA: index of the number of the cells in the bone tissue) were determined by the same methods as those in Example 1. In each test group, the determination was conducted 6 times and the results were represented by the average value and the standard error. The significant difference was determined by Student's t-test. The result was compared with that of the control. When P value was not higher than 0.01 (*) as compared with the control, the results were statistically significant.

[3] = test system: diaphysis tissue of the femur (cortical bone); experiment: Bone calcium level in cultured femoral diaphysis tissue pieces; format: cell-based, Wistar male rats; conditions: for Bone calcium level: diaphysis tissue, mean ± SE
Method: as §1
(§6) Bone calcium level in the bone tissue was determined. After the culture in the incubator, the tissue pieces were washed with 0.25 M sucrose solution and dried and then the bone was weighed. Then concentrated nitric acid was added to the tissue pieces. After the incineration at 120° C. for 12 hours, the bone calcium level was determined with an atomic absorption photometer (“Perkin-Elmer 303” of Perkin-Elmer Co.).
as §3

[4] = test system: rats, femoral metaphysis tissue; experiment: Oral administration to rats: bone calcium level in metaphysis tissue; format: in vivo, Wistar male rats; conditions: for Bone calcium level: metaphysis tissue
Method: as §6, §4, §5

[5] = test system: metaphysis tissue of the femur (cancellous bone); experiment: Bone calcium level in cultured femoral metaphysis tissue pieces; format: cell-based, Wistar male rats; conditions: for Bone calcium level: metaphysis tissue, mean ± SE
Method: as §1, §6
as §3, with “The diaphysis and metaphysis tissue of the femur was cultured in the above-described culture medium containing β-cryptoxanthin (10^−5 to 10^−5 M) for 48 hours.” left out

[6] = test system: rats, femoral diaphysis tissue; experiment: Oral administration to rats: bone alkaline phosphatase activity in diaphysis tissue; format: in vivo, Wistar male rats; conditions: for Bone alkaline phosphatase activity: diaphysis tissue
Method: as §2, §4, §5

[7] = Table 2 (protein synthesis inhibitor experiment), 10^−6 M (each agent), n=6
[8] = β-cryptoxanthin 10^−6 M with cycloheximide
[9] = 10, 25 or 50 μg/100 g body weight/day, 7 days
[10] = oral 10 μg/100 g body weight/day for 7 days
[11] = oral 25 μg/100 g body weight/day for 7 days
[12] = oral 50 μg/100 g body weight/day for 7 days
[13] = 10^−8 to 10^−5 M, 48 h culture, vs control

Question: Which “Effect on alkaline phosphatase activity in the diaphysis (in words)” value ([1]; 10^−7 to 10^−5 M, 48 h culture, vs control) does the source give for `CC1=C(/C=C/C(C)=C/C=C/C(C)=C/C=C/C=C(C)/C=C/C=C(C)/C=C/C2=C(C)C[C@@H](O)CC2(C)C)C(C)(C)CCC1` [β-cryptoxanthin] here?
Answer: significantly increased

Question: What about the “Bone alkaline phosphatase activity” value [1, 7] of the same compound?
Answer: 691.5 ± 11.2* nmol/min/mg protein

Question: What about the “Bone alkaline phosphatase activity” value ([1]; 10^−5 M, 48 h culture) of the same compound?
Answer: 644.6 ± 15.2** nmol/min/mg protein

Question: What about the “Bone alkaline phosphatase activity” value ([1]; 10^−6 M, 48 h culture) of the same compound?
Answer: 684.0 ± 17.7** nmol/min/mg protein

Question: And the “Bone alkaline phosphatase activity” value ([1]; 10^−7 M, 48 h culture)?
Answer: 604.2 ± 9.6* nmol/min/mg protein

Question: What about the “Bone alkaline phosphatase activity” value ([1]; 10^−8 M, 48 h culture) of the same compound?
Answer: 568.5 ± 9.5 nmol/min/mg protein

Question: What about the “Bone alkaline phosphatase activity in diaphysis tissue increased by β-cryptoxanthin: change in the presence of cycloheximide (in words)” value [1, 8] of the same compound?
Answer: significantly lowered

Question: What about the “Effect on alkali phosphatase activity in the metaphysis tissue after oral administration (in words)” value [2, 9] of the same compound?
Answer: significantly increased

Question: And the “Bone alkaline phosphatase activity” value [2, 10]?
Answer: 2.21 ± 0.023* μmol/min/mg protein

Question: What about the “Bone alkaline phosphatase activity” value [2, 11] of the same compound?
Answer: 2.545 ± 0.029* μmol/min/mg protein

Question: And the “Bone alkaline phosphatase activity” value [2, 12]?
Answer: 1.92 ± 0.015* μmol/min/mg protein

Question: And the “Effect on calcium level in the diaphysis tissue (in words)” value [3, 13]?
Answer: significant increase

Question: And the Bone calcium level [3, 7]?
Answer: 275.1 ± 4.50* mg/g dry weight

Question: And the Bone calcium level ([3]; 10^−5 M, 48 h culture)?
Answer: 291.7 ± 2.29** mg/g dry weight

Question: And the Bone calcium level ([3]; 10^−6 M, 48 h culture)?
Answer: 272.2 ± 3.15** mg/g dry weight

Question: And the Bone calcium level ([3]; 10^−7 M, 48 h culture)?
Answer: 269.9 ± 6.26** mg/g dry weight

Question: What about the Bone calcium level ([3]; 10^−8 M, 48 h culture) of the same compound?
Answer: 249.6 ± 3.33** mg/g dry weight

Question: What about the “Calcium level in diaphysis tissue increased by β-cryptoxanthin: change in the presence of cycloheximide (in words)” value [3, 8] of the same compound?
Answer: significantly lowered

Question: And the “Effect on calcium level in the metaphysis tissue after oral administration (in words)” value [4, 9]?
Answer: significantly increased

Question: What about the Bone calcium level [4, 10] of the same compound?
Answer: 201.5 ± 5.60* mg/g dry weight

Question: And the Bone calcium level [4, 11]?
Answer: 200.3 ± 3.90* mg/g dry weight

Question: What about the Bone calcium level [4, 12] of the same compound?
Answer: 205.9 ± 4.10* mg/g dry weight

Question: What about the “Effect on calcium level in the metaphysis tissue (in words)” value [5, 13] of the same compound?
Answer: significant increase

Question: What about the Bone calcium level [5, 7] of the same compound?
Answer: 220.0 ± 3.25* mg/g dry weight

Question: And the Bone calcium level ([5]; 10^−5 M, 48 h culture)?
Answer: 213.5 ± 5.59** mg/g dry weight

Question: And the Bone calcium level ([5]; 10^−6 M, 48 h culture)?
Answer: 216.8 ± 2.84** mg/g dry weight

Question: What about the Bone calcium level ([5]; 10^−7 M, 48 h culture) of the same compound?
Answer: 223.6 ± 9.27** mg/g dry weight

Question: What about the Bone calcium level ([5]; 10^−8 M, 48 h culture) of the same compound?
Answer: 204.7 ± 6.40** mg/g dry weight

Question: And the “Calcium level in metaphysis tissue increased by β-cryptoxanthin: change in the presence of cycloheximide (in words)” value [5, 8]?
Answer: significantly lowered

Question: What about the “Effect on alkali phosphatase activity in the diaphysis tissue after oral administration (in words)” value [6, 9] of the same compound?
Answer: significantly increased

Question: What about the “Bone alkaline phosphatase activity” value [6, 10] of the same compound?
Answer: 2.38 ± 0.019* μmol/min/mg protein

Question: And the “Bone alkaline phosphatase activity” value [6, 11]?
Answer: 2.35 ± 0.021* μmol/min/mg protein

Question: And the “Bone alkaline phosphatase activity” value [6, 12]?
Answer: 1.85 ± 0.025* μmol/min/mg protein
